# Experimental data published in patent US8022178B2, “Modified self-assembling peptides” (Massachusetts Institute of Technology, priority 2006, dated 2011).
# How the values were obtained:
# [1] = test system: HUVEC (human umbilical vein endothelial cells); test: Endothelial cell migration from beads to hydrogels; type: cell-based; conditions: Day 2; compared to RAD; FIGS. 26-27
# Experimental: Endothelial cell migration effect on the hydrogels was evaluated. The endothelial cell migration is important when the vessel has in-growth into the matrix. HUVEC (human umbilical vein endothelial cells) were seeded on Collagen coated Dextran beads (Cytodex3, microcarrier beads, Sigma), then transferred to different hydrogels which selected from Table 19.
# FIGS. 26A-26F show the fluorescence microscopy image of beads on the peptide matrix at Day 1 and Day 2 after placing the beads. […] The white bar represents 100 um. On the Day 1, most of the cells stayed on the beads. On the Day 2, the cells were well migrated from the beads to Collagen, PRGmx and KLTmx gel compared to RAD.
# The cells are counted in fluorescence microscopy image. The above observation were also confirmed in the graph.
# [2] = test system: HUVEC (human umbilical vein endothelial cells); test: HUVEC cultured 2-dimensionally on hydrogels: cell attachment and morphology; type: cell-based
# Experimental: The effect of functional modified peptide matrix to HUVEC (human umbilical vein endothelial cells) was evaluated by culturing cells 2-dimensionally on the gel.
# (§1) The peptide solutions shown in Table 19 were loaded in the culture inserts (10 mm diameter, Millicell-CM, Millipore) and gels were formed using cell culture medium (EGM-2-MV, Camblex). Collagen-1 and Matrigel were used as control matrices. HUVEC (human umbilical vein endothelial cells) were plated at 8×10^4 cells on the inserts and cultured up to 7 Days.
# [3] = test system: HUVEC (human umbilical vein endothelial cells); test: HUVEC DNA amount in the well after three days culture; type: cell-based; conditions: compared to RAD, FIG. 25
# Experimental: as §1
# The amount of DNA in the well after three days culture was evaluated in selected hydrogels of Table 19. The DNA amount is proportional to the number of the cells.
# [4] = test system: chick Chorioallantoic Membrane; test: Chorioallantoic Membrane (CAM) assay of angiogenesis; type: in vivo, chicken; conditions: hydrogel placed Day 8, histology Day 12, FIG. 30
# Experimental: In vivo study of angiogenesis was performed using Chorioallantoic Membrane (CAM) assay. At Day 8 of fertilized chicken egg incubation, hydrogels of 10 mm diameter with 1 mm thickness were transferred to chick Chorioallantoic Membrane. The hydrogels were selected from Table 19 and gels were formed before the transfer. On Day 12, CAMs were collected for histology. The angiogenesis inside and below the hydrogel were evaluated by histological cross section.
substance,measurement,setting,value
"COL: Collagen-1 gel (0.25%); Collagen I gel from rat tail (BD Bioscience), control matrix",cell migration from the beads to the hydrogel,[1],well migrated
same,Cell attachment,[2]; HUVEC cultured on hydrogels,++++ (++++: near confluence(>70%))
same,cell attachment compared to RAD,"[2]; HUVEC on hydrogels for two days, confocal, FIGS. 24A-24M",higher cell attachment
same,DNA amount in the well,[3],statically higher
same,angiogenesis inside and below the hydrogel,[4],no angiogenesis both inside and below the hydrogel
